What was measured:
[1] = target: T1, PIM3 (Homo sapiens, UniProt Q86V86); assay: Pim-3 kinase enzymatic assay (Caliper LC3000, FAM-Pimtide substrate); type: biochemical; settings: 55 pM PIM3, 10 μM ATP, 90 minutes; read-out: PIM3 LC3K (Ki)
T1 construct: made in house

[2] = target: T2, PIM2 (Homo sapiens, UniProt Q9P1W9); assay: Pim-2 kinase enzymatic assay (Caliper LC3000, FAM-Pimtide substrate); type: biochemical; settings: 50 pM PIM2, 10 μM ATP, 90 minutes; read-out: PIM2 LC3K (Ki)
T2 construct: made in house
T2 sequence (Q9P1W9 whole entry): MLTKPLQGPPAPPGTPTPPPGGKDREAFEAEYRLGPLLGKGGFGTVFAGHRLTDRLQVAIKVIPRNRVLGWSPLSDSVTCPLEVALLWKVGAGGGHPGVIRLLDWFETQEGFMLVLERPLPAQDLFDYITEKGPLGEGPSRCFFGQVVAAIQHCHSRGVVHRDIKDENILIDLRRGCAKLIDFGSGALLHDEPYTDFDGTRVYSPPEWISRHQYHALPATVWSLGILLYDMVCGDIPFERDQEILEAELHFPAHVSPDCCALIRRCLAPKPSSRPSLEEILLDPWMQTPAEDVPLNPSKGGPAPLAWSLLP

[3] = target: BaF3 PIM2 cells (Homo sapiens, UniProt Q9P1W9); assay: BaF3 PIM2 cell proliferation (Cell Titer Glo); type: cell-based; settings: incubated overnight; read-out: Prolif BaF3_PIM2 (IC50)
Sequence of BaF3 PIM2 cells (Q9P1W9 whole entry, change not shown): as the sequence (Q9P1W9 whole entry) above
How it was run: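 BaF3 cells stably transfected with PIM2 were cultured in RPMI with 10% FBS, 2 mM L-Glutamine and 250 μg/mL G418, then plated at 5 k/well in 45 μL/well of a 384-well plate. Test compound was added at 5 μL/well, cells incubated overnight, and viability measured by luminescence after 30 minutes with Cell Titer Glo (50 μL/well).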

[4] = target: BaF3 PIM1 cells (Homo sapiens, UniProt P11309); assay: BaF3 PIM1 cell proliferation (Cell Titer Glo); type: cell-based; settings: incubated overnight; read-out: Prolif BaF3_PIM1 (IC50)
Sequence of BaF3 PIM1 cells (P11309 whole entry, change not shown): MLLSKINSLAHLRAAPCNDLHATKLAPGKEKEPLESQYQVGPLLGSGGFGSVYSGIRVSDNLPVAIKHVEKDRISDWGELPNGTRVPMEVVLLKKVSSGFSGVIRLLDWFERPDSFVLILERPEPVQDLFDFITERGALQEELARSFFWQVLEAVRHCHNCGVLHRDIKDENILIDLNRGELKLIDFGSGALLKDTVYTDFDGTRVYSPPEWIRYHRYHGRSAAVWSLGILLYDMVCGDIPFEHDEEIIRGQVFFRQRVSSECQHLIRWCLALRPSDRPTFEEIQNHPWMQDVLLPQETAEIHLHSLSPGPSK

[5] = target: T3, PIM1 (Homo sapiens, UniProt P11309); assay: Pim-1 kinase enzymatic assay (Caliper LC3000, FAM-Pimtide substrate); type: biochemical; settings: 20 pM PIM1, 10 μM ATP, 90 minutes; read-out: PIM1 LC3K (Ki)
T3 construct: made in house
T3 sequence (P11309 whole entry): as the sequence (P11309 whole entry, change not shown) above

[6] = tested on: MM1.S cells; assay: MM1.S cell proliferation, 72 hours (Cell Titer Glo); type: cell-based; settings: Homo sapiens, 72 hours, read-out: Prolif MM1S ATP (EC50)
How it was run: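 BaF3 parental cells (2 k/well, with 2 ng/mL mIL-3) were treated overnight, and MM1.S cells (10 k/well) were treated for 72 h at 37 °C. Viability was read by CellTiter-Glo luminescence. IC50/EC50 values were calculated from the luminescence data.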

| Ki [1] [nM] | Ki [2] [nM] | GI50 [3] [nM] | GI50 [4] [nM] | Ki [5] [nM] | EC50 [6] [nM] | Compound |
| --- | --- | --- | --- | --- | --- | --- |
| 138 | 242 | > 20000 | > 20000 | 420 | > 20000 | CN(C)Cc1nc(C(=O)Nc2cnccc2N2CCC[C@H](N)C2)c(N)s1 [Example 21, (S)-5-amino-N-(4-(3-aminopiperidin-1-yl)pyridin-3-yl)-2-((dimethylamino)methyl)thiazole-4-carboxamide] |
| 0.338 | 2.78 | 12500 | 613 | 0.561 | 5500 | N[C@H]1CCCN(c2ccncc2NC(=O)c2csc(-c3ccccc3F)n2)C1 [Example 45, (S)-N-(4-(3-aminopiperidin-1-yl)pyridin-3-yl)-2-(2-fluorophenyl)thiazole-4-carboxamide] |
| 0.022 | 0.0185 | 3900 | 45.5 | 0.061 | 237 | Nc1sc(-c2cccc(F)c2F)nc1C(=O)Nc1cnccc1N1CCC[C@H](N)C1 [Example 43, (S)-5-amino-N-(4-(3-aminopiperidin-1-yl)pyridin-3-yl)-2-(2,3-difluorophenyl)thiazole-4-carboxamide] |
| 0.554 | 1.85 | 6500 | 232 | 0.89 | 3100 | Nc1sc(-c2c(Cl)cccc2Cl)nc1C(=O)Nc1cnccc1N1CCC[C@H](N)C1 [Example 58, (S)-5-amino-N-(4-(3-aminopiperidin-1-yl)pyridin-3-yl)-2-(2,6-dichlorophenyl)thiazole-4-carboxamide] |
| 0.279 | 1.16 | 17600 | 465 | 1.07 | 1400 | Nc1sc(C2CCCC2)nc1C(=O)Nc1cnccc1N1CCC[C@H](N)C1 [Example 60, (S)-5-amino-N-(4-(3-aminopiperidin-1-yl)pyridin-3-yl)-2-cyclopentylthiazole-4-carboxamide] |
| 0.022 | 0.127 | > 20000 | 1700 | 0.054 | 650 | CCNC(=O)Nc1ccc(-c2nc(C(=O)Nc3cnccc3N3CCC[C@H](N)C3)c(N)s2)cc1 [Example 32, (S)-5-amino-N-(4-(3-aminopiperidin-1-yl)pyridin-3-yl)-2-(4-(3-ethylureido)phenyl)thiazole-4-carboxamide] |
| 1.89 | 16.4 | 3300 | 945 | 1.93 | 4400 | Nc1sc(-c2ccccc2OC(F)(F)F)nc1C(=O)Nc1cnccc1N1CCC[C@H](N)C1 [Example 15] |
| 0.041 | 0.265 | > 20000 | 197 | 0.0812 | 156 | Nc1sc(-c2cc[nH]n2)nc1C(=O)Nc1cnccc1N1CCC[C@H](N)C1 [Example 51, (S)-5-amino-N-(4-(3-aminopiperidin-1-yl)pyridin-3-yl)-2-(1H-pyrazol-3-yl)thiazole-4-carboxamide] |
| 0.333 | 6.88 | 1400 | 614 | 0.5 | 743 | Nc1sc(-c2c(F)cccc2F)nc1C(=O)Nc1cnccc1N1CCNCC1 [Example 50, 5-amino-2-(2,6-difluorophenyl)-N-(4-(piperazin-1-yl)pyridin-3-yl)thiazole-4-carboxamide] |
| 1.76 | 16.3 | > 20000 | > 14000 | 0.43 | 20000 | Nc1sc(-c2c(F)cccc2F)nc1C(=O)Nc1cnccc1N1CCCCC1 [Example 24, 5-amino-2-(2,6-difluorophenyl)-N-(4-(piperidin-1-yl)pyridin-3-yl)thiazole-4-carboxamide] |
| 0.031 | 0.153 | 1800 | 2500 | 0.034 | 137 | Nc1sc(-c2cc(Cl)ccc2F)nc1C(=O)Nc1cnccc1N1CCC[C@H](N)C1 [Example 23, (S)-5-amino-N-(4-(3-aminopiperidin-1-yl)pyridin-3-yl)-2-(5-chloro-2-fluorophenyl)thiazole-4-carboxamide] |

Reference: patent US8435976B2, “4-substituted pyridin-3-yl-carboxamide compounds and methods of use” (F. Hoffmann-La Roche, priority 2009, dated 2013)
